Test results reported in paper PMC9240354, “Pharmacokinetics, Pharmacodynamics and Antiviral Efficacy of the MEK Inhibitor Zapnometinib in Animal Models and in Humans” (Frontiers in Pharmacology, 2022).
Converted amounts (≈) assume the structure as drawn.

What was measured:
[1] = pharmacokinetics, summary regardless of species; format: in vivo, mice, hamsters, dogs, human; details: regardless of species or formulation
Protocol: Pharmacokinetic analysis of the mouse plasma samples was performed using standard procedures at Prolytic GmbH (Frankfurt, Germany). Hamster plasma samples were analyzed at Synovo GmbH (Tuebingen, Germany) using HPLC MS/MS (Agilent 1260 HPLC with Sciex API4500) with linear response for plasma concentrations between 15 nM and 33 µM (6.1 ng/ml to 13.5 μg/ml). Pharmacokinetic analyses of the dog plasma samples were performed at Pharmascience Inc. (Montreal, Canada) using an HPLC MS/MS method for the determination of zapnometinib plasma concentrations. The validated calibration range for this assay is from 0.6 μg/ml to […] for which all validation requirements were successfully evaluated. Regressions, calibration standard, quality control sample, animal sample result tables, acquisition methods and chromatograms were generated by Applied Biosystems Analyst^TM software, version 1.6.2. Plasma concentrations of zapnometinib of the human samples were determined at SGS Life Sciences (Bioanalysis Department, Wavre, Belgium) using a validated HPLC MS/MS method with a lower limit of quantification of 10 ng/ml for the analyte zapnometinib. Statistical analysis was performed by SGS (demography and safety analyses, exposure, and compliance) using SAS® version 9.4 (SAS Institute Inc., Cary, NC, United States).

[2] = system: MEK; assay: MEK inhibition in PBMCs of treated beagle dogs (pERK/ERK, Wes); format: in vivo; details: formulation 3, plasma concentrations until Cmax vs ERK phosphorylation in PBMCs
Protocol: PBMCs were isolated from the same blood samples (30 µl mouse blood, 50 µl hamster blood, or 1 ml dog blood) used for pharmacokinetic analysis. After plasma separation as described in the section above (Blood sampling and preparation of plasma samples), the remaining red blood cells were lysed by adding 1 volume of red blood cell (RBC) lysis buffer (Thermo Fisher Scientific, Waltham, MA, United States) (300 µl for mice, 500 µl for hamster, and 10 ml for dogs). The samples were incubated for 15 min at RT and centrifuged at 500 x g for 5 min (RT). The supernatant was removed completely, and the pellet was washed twice with PBS. The PBMC cell pellets were store at −80°C until further analysis. […]
The pharmacodynamic assessment was performed using the Wes™ (Simple Western™) system which uses capillary electrophoresis to separate, identify and quantify proteins of interest. A chemiluminescence signal for each identified protein is detected and the area under the peak is calculated, which is then used for quantification. The 0.1x Sample Buffer, 400 mM dithiothreitol (DTT) solution, 5x Fluorescence Master Mix, and the Biotinylated Ladder (ProteinSimple®, Abingdon, Oxford, United Kingdom) were prepared according to manufacturer’s instructions. […] The anti-rabbit secondary antibody (Cat# DM-001) was also purchased from ProteinSimple® and was ready to use. […]

[3] = mice
[4] = system: influenza A and B viruses; set-up: method as in Laure et al., 2020; details: in vitro, ref Laure et al., 2020, read-out: EC50 antiviral efficacy; cited from earlier work
[5] = system: MEK; assay: MEK inhibition in PBMCs of treated Syrian hamsters (pERK/ERK, Wes); format: in vivo; details: hamster PBMCs
Protocol: (§1) PBMCs were isolated from the same blood samples (30 µl mouse blood, 50 µl hamster blood, or 1 ml dog blood) used for pharmacokinetic analysis. After plasma separation as described in the section above (Blood sampling and preparation of plasma samples), the remaining red blood cells were lysed by adding 1 volume of red blood cell (RBC) lysis buffer (Thermo Fisher Scientific, Waltham, MA, United States) (300 µl for mice, 500 µl for hamster, and 10 ml for dogs). The samples were incubated for 15 min at RT and centrifuged at 500 x g for 5 min (RT). The supernatant was removed completely, and the pellet was washed twice with PBS. The PBMC cell pellets were store at −80°C until further analysis. PBMCs of 8 ml human blood were isolated using CPT^TM tubes. After a 20-min centrifugation at 1,650 x g at room temperature, the plasma was collected for PK analysis as described in the section above (Blood sampling and preparation of plasma samples). […]
(§2) The pharmacodynamic assessment was performed using the Wes™ (Simple Western™) system which uses capillary electrophoresis to separate, identify and quantify proteins of interest. A chemiluminescence signal for each identified protein is detected and the area under the peak is calculated, which is then used for quantification. The 0.1x Sample Buffer, 400 mM dithiothreitol (DTT) solution, 5x Fluorescence Master Mix, and the Biotinylated Ladder (ProteinSimple®, Abingdon, Oxford, United Kingdom) were prepared according to manufacturer’s instructions. […] Then the 5x Fluorescence Master Mix in DTT (ProteinSimple®) was added, and the samples were denatured for 5 min at 95°C, loaded onto the assay plate and analyzed using specific antibodies. […] The anti-rabbit secondary antibody (Cat# DM-001) was also purchased from ProteinSimple® and was ready to use. Data were analyzed with Compass software for simple western (ProteinSimple®). Using the ratio of pERK to ERK of each sample compared to control (pre-dose), the level of ERK phosphorylation was calculated and then converted into the percentage level of MEK inhibition.

[6] = in vivo; details: C57BL/6, mouse
[7] = system: MEK; assay: MEK inhibition in PBMCs of treated mice (pERK/ERK, Wes); format: in vivo, C57BL/6 mice
Protocol: as §1, §2

[8] = in vivo; details: Syrian, hamster; for AUC(0-t) / Cmax / Tmax: po
[9] = system: SARS-CoV-2; set-up: method as in Schreiber et al., 2022; details: reduction in viral growth in cell lines; ref Schreiber et al., 2022; cited from earlier work
[10] = system: human PBMCs; details: read-out: CC50 cytotoxicity, ref Laure et al., 2020; cited from earlier work
[11] = in vivo; details: beagle, dog, po, 30 mg/kg

O=C(O)c1ccc(F)c(F)c1Nc1ccc(I)cc1Cl [zapnometinib, 2-(2-Chloro-4-Iodophenylamino)-N-3,4-Difluoro benzoic acid]
time to maximum plasma concentration (Cmax) [1]: 2 to 4 h | IC50 (plasma concentration reducing ERK phosphorylation by 50% compared to pre-dose) [2]: 12.5 µg/mL (≈ 30.5 µM) | plasma concentration two hours after the second administration ([3]; 25 mg/kg p.o. twice, t = 10 h): 101 ± 16 µg/mL | plasma concentration prior to the second treatment ([3]; 25 mg/kg p.o., t = 8 h): 36 ± 8 µg/mL | EC50 [4]: 4.2 to 6.4 µM | MEK inhibition 12 h after the first treatment ([5]; 15 mg/kg BID): 25 ± 15% | MEK inhibition at 24 h ([5]; 15 mg/kg BID, 15 mg/kg): 43 ± 8% | MEK inhibition at 24 h ([5]; 60 mg/kg OD): 55 ± 26% | half-life [6]: 8 h | AUC ([6]; po, 25 mg/kg): 1390 µg·h/mL | Cmax ([6]; po, 25 mg/kg): 69 ± 24 µg/mL | Tmax ([6]; po, 25 mg/kg, Tmax,1, mice, 25 mg/kg p.o., after first treatment): 2 h | Tmax ([6]; po, 25 mg/kg, Tmax,2, mice, 25 mg/kg p.o. twice, second dose at 8 h): 10 h | MEK inhibition, first maximum ([7]; 2 h after first treatment): 72 ± 10% | MEK inhibition, second maximum ([7]; 22 h after first treatment (14 h after second)): 80 ± 5% | MEK inhibition at end of observation period ([7]; t = 24 h): 66 ± 19% | half-life [8]: 8 h | AUC(0-t) ([8]; 15 mg/kg): 121 ± 4 µg·h/mL | Cmax ([8]; 15 mg/kg): 15 ± 1 µg/mL | Tmax ([8]; 15 mg/kg): 3 ± 1 h | AUC(0-t) ([8]; 60 mg/kg): 623 ± 87 µg·h/mL | Cmax ([8]; 60 mg/kg): 61 ± 2 µg/mL | Tmax ([8]; 60 mg/kg): 3 ± 1 h | anti-SARS-CoV-2 activity [9]: potent anti-SARS-CoV-2 activity | CC50 [10]: 322 µM | half-life [11]: 4 to 5 h
